# Experimental data as given in patent US20090069320A1, “Substituted 4-Amino-Quinazoline Compounds with Metabotropic Glutamate Receptor Regulating Activity and Uses Thereof” (Gruenenthal GmbH, priority 2006, published 2009).
# Structures can show the parent of a compound that is named as a salt.
# Molecular target: T1, mGluR5 receptor (Sus scrofa, UniProt I3LUI7)
# T1 construct: 450 μg of protein from brain homogenate with 5 nM ^3[H]-MPEP; from tissue; host or cells: pig brain halves without medulla, cerebellum and pons
# Test: [3H]-MPEP mGluR5 receptor binding assay (pig brain homogenate)
# Conditions: 5 nM [3H]-MPEP, read-out: IC50 mGluR5 Receptor (pig) [^3H]-MPEP Bond
# Method in brief: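 Compounds at 10 μM competed with 5 nM [3H]-MPEP for binding to pig brain membranes (450 μg protein) for 60 min at room temperature in pH 8.0 Hepes buffer. Bound radioactivity was collected on glass-fibre filters and read by β-counting, with 10 μM unlabelled MPEP giving non-specific binding.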
# T1 sequence (I3LUI7 19-1212): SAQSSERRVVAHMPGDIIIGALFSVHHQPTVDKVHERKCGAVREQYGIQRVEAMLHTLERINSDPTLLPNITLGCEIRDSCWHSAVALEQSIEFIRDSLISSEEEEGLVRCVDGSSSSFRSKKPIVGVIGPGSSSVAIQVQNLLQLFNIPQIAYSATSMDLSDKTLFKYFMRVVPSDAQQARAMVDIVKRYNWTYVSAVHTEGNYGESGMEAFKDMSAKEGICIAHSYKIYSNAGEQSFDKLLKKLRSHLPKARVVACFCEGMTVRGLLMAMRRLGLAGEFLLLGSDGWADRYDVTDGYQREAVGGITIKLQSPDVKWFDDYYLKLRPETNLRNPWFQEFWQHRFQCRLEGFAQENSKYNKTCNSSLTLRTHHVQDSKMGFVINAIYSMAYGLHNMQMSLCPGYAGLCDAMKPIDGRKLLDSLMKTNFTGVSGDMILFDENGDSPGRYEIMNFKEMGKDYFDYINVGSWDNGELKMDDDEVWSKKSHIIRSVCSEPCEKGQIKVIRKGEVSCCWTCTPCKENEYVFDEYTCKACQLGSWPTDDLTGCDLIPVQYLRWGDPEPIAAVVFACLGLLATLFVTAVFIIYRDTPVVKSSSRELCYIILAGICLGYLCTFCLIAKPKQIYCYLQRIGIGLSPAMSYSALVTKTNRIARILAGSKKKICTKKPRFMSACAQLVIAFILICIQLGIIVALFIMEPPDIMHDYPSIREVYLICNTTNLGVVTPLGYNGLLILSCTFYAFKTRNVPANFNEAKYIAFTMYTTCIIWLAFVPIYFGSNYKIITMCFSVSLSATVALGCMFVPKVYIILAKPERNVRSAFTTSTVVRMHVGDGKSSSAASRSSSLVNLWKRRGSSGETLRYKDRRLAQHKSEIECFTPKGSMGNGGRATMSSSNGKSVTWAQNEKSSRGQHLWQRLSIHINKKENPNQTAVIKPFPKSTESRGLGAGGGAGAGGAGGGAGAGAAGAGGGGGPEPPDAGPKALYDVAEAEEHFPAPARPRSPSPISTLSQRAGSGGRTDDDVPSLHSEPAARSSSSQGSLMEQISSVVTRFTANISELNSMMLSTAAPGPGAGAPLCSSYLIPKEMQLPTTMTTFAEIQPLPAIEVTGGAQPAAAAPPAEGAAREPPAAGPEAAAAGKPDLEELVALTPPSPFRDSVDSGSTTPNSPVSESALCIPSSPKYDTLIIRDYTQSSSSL
row,IC50,Structure (SMILES)
1,0.6 µM,"O=C(c1c(F)c(F)c(F)c(F)c1F)N(Cc1cccc(-c2ccc3ncnc(NC4CC4)c3c2)c1)C1CC1 [Example 254, N-cyclopropyl-N-[3-(4-cyclopropylamino-quinazolin-6-yl)-benzyl]-2,3,4,5,6-pentafluoro-benzamide]"
2,4.61 µM,"CS(=O)(=O)N(Cc1ccccc1)Cc1cccc(-c2ccc3ncnc(NC4CC4)c3c2)c1 [Example 222, N-benzyl-N-(3-(4-(cyclopropylamino)quinazolin-6-yl)benzyl)methane sulfonamide]"
3,0.21 µM,"O=C(c1ccno1)N(Cc1cc(-c2ccc3ncnc(NC4CC4)c3c2)ccc1F)C1CC1 [Example 457, N-cyclopropyl-N-(5-(4-(cyclopropylamino)quinazolin-6-yl)-2-fluorobenzyl)isoxazole-5-carboxamide]"

# More lines, now with the values behind:
row,Structure (SMILES),IC50
1,"CC(C)Nc1ncnc2ccc(-c3cccc(CN4C(=O)CCC4=O)c3)cc12 [Example 873, 1-(3-(4-(isopropylamino)quinazolin-6-yl)benzyl)pyrrolidine-2,5-dione hydrochloride]",0.08 µM
2,"COc1ccc(-c2ccc3ncnc(NC4CC4)c3c2)cc1CNC1CC1 [Example 298, N-cyclopropyl-6-(3-((cyclopropylamino)methyl)-4-methoxyphenyl)quinazoline-4-amine]",10.8 µM
3,"O=C1C2CCCCC2C(=O)N1Cc1cccc(-c2ccc3ncnc(NC4CC4)c3c2)c1 (centres unmarked) [Example 228, 2-[3-(4-cyclopropylamino-quinazolin-6-yl)-benzyl]-hexahydro-isoindole-1,3-dione; hydrochloride]",8.7 µM
4,"CC(=O)N(Cc1cccc(-c2cc3c(NC4CC4)ncnc3cc2C)c1)C1CC1 [Example 710, N-cyclopropyl-N-(3-(4-(cyclopropylamino)-7-methylquinazolin-6-yl)benzyl)acetamide]",0.11 µM
5,"N#CCC(=O)N(Cc1cc(-c2ccc3ncnc(NC4CC4)c3c2)ccc1F)C1CC1 [Example 281, 2-cyano-N-cyclopropyl-N-(5-(4-(cyclopropylamino)quinazolin-6-yl)-2-fluorobenzyl)acetamide hydrochloride]",0.03 µM
6,"CC(=O)N(Cc1ccc(-c2ccc3ncnc(NC4CC4)c3c2)o1)C1CC1 [Example 232, N-cyclopropyl-N-[5-(4-cyclopropylamino-quinazolin-6-yl)-furan-2-yl-methyl]-acetamide]",4.27 µM

# Same assay, conditions: 10 μM compound, 5 nM [3H]-MPEP
row,% Inhibition of mGluR5 Receptor (pig) [^3H]-MPEP Bond at 10 μM,Structure (SMILES)
1,86%,"COc1ccc(S(=O)(=O)N(Cc2cccc(-c3cc4c(NC5CC5)ncnc4cc3C)c2)C2CC2)cc1 [Example 659, N-cyclopropyl-N-(3-(4-(cyclopropylamino)-7-methylquinazolin-6-yl)benzyl)-4-methoxybenzole sulfonamide]"
2,50%,"O=S(=O)(c1ccc(Cl)cc1Cl)N(Cc1cccc(-c2cc(F)c3ncnc(NC4CC4)c3c2)c1)C1CC1 [Example 782, 2,4-dichloro-N-cyclopropyl-N-(3-(4-(cyclopropylamino)-8-fluoroquinazolin-6-yl)benzyl)benzole sulfonamide]"
3,83%,"CC(C)(C)Nc1ncnc2ccc(-c3ccc(F)c(CN(C(=O)C(C)(C)C)C4CC4)c3)cc12 [Example 850, N-(5-(4-(tert-butylamino)quinazolin-6-yl)-2-fluorobenzyl)-N-cyclopropyl pivalamide]"

# Same assay, conditions: 10 μM compound, 5 nM [3H]-MPEP, read-out: % Inhibition of mGluR5 Receptor (pig) [^3H]-MPEP Bond at 10 μM
row,inhibition at 10 µM,Structure (SMILES)
1,85%,"Cc1nc(NC2CC2)c2cc(-c3cccc(CN(C(=O)c4c(F)c(F)c(F)c(F)c4F)C4CC4)c3)ccc2n1 [Example 447, N-cyclopropyl-N-(3-(4-(cyclopropylamino)-2-methylquinazolin-6-yl)benzyl)-2,3,4,5,6-pentafluorobenzamide]"
2,40%,"Cc1nc(NC2CC2)c2cc(-c3ccc(F)c(CN(C(=O)c4ccccc4)C4CC4)c3)ccc2n1 [Example 550, N-cyclopropyl-N-(5-(4-(cyclopropylamino)-2-methylquinazolin-6-yl)-2-fluorobenzyl)benzamide]"
3,46%,"Cc1nc(NC2CC2)c2cc(-c3ccc(F)c(CN(C(=O)C4CCCCC4)C4CC4)c3)ccc2n1 [Example 639, N-cyclopropyl-N-(5-(4-(cyclopropylamino)-2-methylquinazolin-6-yl)-2-fluorobenzyl)cyclohexane carboxamide]"
4,95%,"O=C(c1cccs1)N(Cc1cc(-c2ccc3ncnc(NC4CC4)c3c2)ccc1Cl)C1CC1 [Example 754, N-(2-chloro-5-(4-(cyclopropylamino)quinazolin-6-yl)benzyl)-N-cyclopropylthiophene-2-carboxamide]"
5,91%,"O=C(c1ccncc1)N(Cc1cccc(-c2cc(F)c3ncnc(NC4CC4)c3c2)c1)C1CC1 [Example 736, N-cyclopropyl-N-(3-(4-(cyclopropylamino)-8-fluoroquinazolin-6-yl)benzyl)isonicotinamide]"
6,83%,"Cc1cc2ncnc(NC3CC3)c2cc1-c1cccc(CN(C(=O)c2ccco2)C2CC2)c1 [Example 691, N-cyclopropyl-N-(3-(4-(cyclopropylamino)-7-methylquinazolin-6-yl)benzyl)furan-2-carboxamide]"
7,77%,"Cc1cc2ncnc(NC3CC3)c2cc1-c1cccc(CN(C(=O)CCc2ccccc2)C2CC2)c1 [Example 669, N-cyclopropyl-N-(3-(4-(cyclopropylamino)-7-methylquinazolin-6-yl)benzyl)-3-phenylpropanamide]"
8,72%,"O=C(c1ccc(C(F)(F)F)cc1F)N(Cc1cc(-c2ccc3ncnc(NC4CC4)c3c2)ccn1)C1CC1 [Example 735, N-cyclopropyl-N-((4-(4-(cyclopropylamino)quinazolin-6-yl)pyridin-2-yl)methyl)-2-fluoro-4-(trifluoromethyl)benzamide]"
9,85%,"O=C(c1cc2ccccc2cn1)N(Cc1cccc(-c2ccc3ncnc(NC4CC4)c3c2)c1)C1CC1 [Example 159, isoquinoline-3-carboxylic acid cyclopropyl-[3-(4-cyclopropylamino-quinazolin-6-yl)-benzyl]-amide]"
10,76%,"CCCCC(=O)N(Cc1cccc(-c2ccc3nc(C)nc(NC4CC4)c3c2)c1)C1CC1 [Example 519, N-cyclopropyl-N-(3-(4-(cyclopropylamino)-2-methylquinazolin-6-yl)benzyl)pentanamide]"
11,43%,"Cc1nc(NC2CC2)c2cc(-c3cccc(CN(C(=O)c4ccccc4C(F)(F)F)C4CC4)c3)ccc2n1 [Example 666, N-cyclopropyl-N-(3-(4-(cyclopropylamino)-2-methylquinazolin-6-yl)benzyl)-2-(trifluoromethyl)benzamide]"

# The remaining lines, values behind:
row,Structure (SMILES),inhibition at 10 µM
1,"O=C(c1cc2ccccc2cn1)N(Cc1cccc(-c2ccc3ncnc(N4CCCC4)c3c2)c1)C1CC1 [Example 125, isoquinoline-3-carboxylic acid cyclopropyl-[3-(4-pyrrolidin-1-yl-quinazolin-6-yl)-benzyl]-amide]",30%
2,"CCCN(Cc1cccc(-c2ccc3ncnc(Nc4ccccc4)c3c2)c1)C(=O)c1ccccc1Cl [Example 119, 2-chloro-N-[3-(4-phenylamino-quinazolin-6-yl)-benzyl]-N-propyl-benzamide]",52%
3,"O=C1C=CC(=O)N1Cc1cc(-c2ccc3ncnc(NC4CC4)c3c2)ccc1F [Example 192, 1-(5-(4-(cyclopropylamino)quinazolin-6-yl)-2-fluorobenzyl)-1H-pyrrole-2,5-dione]",41%
4,"Fc1c(CNC2CC2)cccc1-c1ccc2ncnc(NC3CC3)c2c1 [Example 324, N-cyclopropyl-6-(3-((cyclopropylamino)methyl)-2-fluorophenyl)quinazoline-4-amine]",55%
5,"CCN(CC)c1ncnc2ccc(-c3cccc(CN(C)C(=O)C=Cc4ccccc4)c3)cc12 [Example 62, N-[3-(4-diethylamino-quinazolin-6-yl)-benzyl]-N-methyl-3-phenyl-acrylamide]",43%
6,"N#CCC(=O)N(Cc1cc(F)cc(-c2ccc3ncnc(NC4CC4)c3c2)c1)C1CC1 [Example 902, 2-cyano-N-cyclopropyl-N-(3-(4-(cyclopropylamino)quinazolin-6-yl)-5-fluorobenzyl)acetamide]",92%
7,"Cc1cccc(CNc2ncnc3ccc(-c4cccc(CN(C(=O)c5cccnc5)C5CC5)c4)cc23)c1 [Example 411, N-cyclopropyl-N-(3-(4-(3-methylbenzylamino)quinazolin-6-yl)benzyl)nicotinamide]",34%
8,"CCCCC(=O)N(Cc1cccc(-c2ccc3ncnc(NCCc4ccccc4)c3c2)c1)C1CC1 [Example 409, N-cyclopropyl-N-(3-(4-(phenethylamino)quinazolin-6-yl)benzyl)pentanamide]",32%
9,"O=S(=O)(c1cccc2cccnc12)N(Cc1cc(-c2ccc3ncnc(NC4CC4)c3c2)ccc1F)C1CC1 [Example 415, N-cyclopropyl-N-(5-(4-(cyclopropylamino)quinazolin-6-yl)-2-fluorobenzyl)quinoline-8-sulfonamide]",53%
10,"CS(=O)(=O)N(Cc1cc(-c2ccc3ncnc(NC4CC4)c3c2)ccc1F)C1CC1 [Example 251, N-cyclopropyl-N-(5-(4-(cyclopropylamino)quinazolin-6-yl)-2-fluorobenzyl)methane sulfonamide]",30%
11,"CNc1ncnc2ccc(-c3ccc(F)c(CN(C)C(=O)c4c(F)c(F)c(F)c(F)c4F)c3)cc12 [Example 585, 2,3,4,5,6-pentafluoro-N-(2-fluoro-5-(4-(methylamino)quinazolin-6-yl)benzyl)-N-methylbenzamide]",70%
12,"CCCN(Cc1cccc(-c2ccc3ncnc(Nc4ccccc4)c3c2)c1)C(=O)c1ccncc1 [Example 92, N-[3-(4-phenylamino-quinazolin-6-yl)-benzyl]-N-propyl-isonicotinamide]",74%
